Results from patent US9474790B2, “Stable, protracted GLP-1/glucagon receptor co-agonists for medical use” (Novo Nordisk A/S, priority 2013, dated 2016).
Numbered stars: 1 amine (or outer) side, 2 acyl side, 3 side chain; on linkers, the order of the positions; unused ones are H or OH. Bridge positions count the residues as written; N and C are the ends. Square brackets hold non-standard residues; d marks the D form. Peptide text beside a SMILES is read from it. I, II: the chains in the order shown. * marks the point of attachment. C18 diacid = O=C(O)CCCCCCCCCCCCCCCCC(=O)*; γGlu = O=C(O)[C@H](CCC(=O)[*:2])N[*:1]; Ac4c = NC1(C(=O)O)CCC1; Aib = CC(C)(N)C(=O)O

Target: T1, human glucagon receptor (Homo sapiens, UniProt P47871)
T1 construct: expressed in transfected cells; host or cells: BHK cells (parent BHK570, CRE luciferase clone BHK/KZ10-20-48), clone pLJ6'-4-25
T1 sequence (P47871 26-477): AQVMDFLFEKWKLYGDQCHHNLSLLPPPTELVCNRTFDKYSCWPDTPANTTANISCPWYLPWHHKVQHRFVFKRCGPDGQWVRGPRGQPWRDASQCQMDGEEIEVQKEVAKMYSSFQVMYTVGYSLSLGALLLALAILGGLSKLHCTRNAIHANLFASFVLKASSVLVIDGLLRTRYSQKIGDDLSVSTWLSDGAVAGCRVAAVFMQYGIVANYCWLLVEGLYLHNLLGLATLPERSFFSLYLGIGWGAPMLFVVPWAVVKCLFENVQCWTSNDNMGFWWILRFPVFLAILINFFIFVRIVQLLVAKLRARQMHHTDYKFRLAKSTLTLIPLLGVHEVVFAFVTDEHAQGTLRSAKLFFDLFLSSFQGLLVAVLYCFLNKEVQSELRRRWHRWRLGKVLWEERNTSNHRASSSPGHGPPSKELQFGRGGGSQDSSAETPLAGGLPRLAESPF
Assay: Glucagon receptor potency, CRE luciferase reporter gene assay in BHK cells
Type: cell-based
Settings: BHK cells expressing human glucagon receptor, read-out: EC50 GlucR
In short: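 EC50 (pM) comes from a four-parameter fit of luciferase luminescence after 3 h at 37 °C with compound at final 1×10EE-13–1×10EE-6 M. Cells: BHK570-derived line carrying human glucagon receptor plus CRE-luciferase, 5×10EE3/well, in assay medium with 2% ovalbumin, 0.2% Pluronic F-68.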

| EC50 [pM] | Compound |
| --- | --- |
| 4 | CC(C)C[C@H](NC(=O)[C@H](Cc1ccc(O)cc1)NC(=O)[C@H](CCCCN)NC(=O)[C@H](CO)NC(=O)[C@H](CC(C)C)NC(=O)[C@H](CC(=O)O)NC(=O)[C@H](CO)NC(=O)[C@@H](NC(=O)[C@H](Cc1ccccc1)NC(=O)[C@@H](NC(=O)CNC(=O)[C@H](CCC(N)=O)NC(=O)C1(NC(=O)[C@@H](N)Cc2c[nH]cn2)CCC1)[C@@H](C)O)[C@@H](C)O)C(=O)N[C@@H](CCC(=O)O)C(=O)N[C@@H](CO)C(=O)N[C@@H](CCCCN)C(=O)N[C@@H](CCCNC(=N)N)C(=O)N[C@@H](C)C(=O)N[C@@H](CCCNC(=N)N)C(=O)N[C@@H](CCC(=O)O)C(=O)N[C@@H](Cc1ccccc1)C(=O)N[C@H](C(=O)N[C@@H](CCC(N)=O)C(=O)N[C@@H](Cc1c[nH]c2ccccc12)C(=O)N[C@@H](CC(C)C)C(=O)N[C@@H](CC(C)C)C(=O)N[C@@H](CCCCNC(=O)CNC(=O)[C@H](CO)NC(=O)[C@H](CCC(=O)O)NC(=O)CNC(=O)[C@H](CO)NC(=O)CC[C@H](NC(=O)CC[C@H](NC(=O)CCCCCCCCCCCCCCCCC(=O)O)C(=O)O)C(=O)O)C(=O)N[C@H](C(N)=O)[C@@H](C)O)C(C)C [Example 36, N^ε28-[2-[[(2S)-2-[[(2S)-4-carboxy-2-[[2-[[(2S)-2-[[(4S)-4-carboxy-4-[[(4S)-4-carboxy-4-(17-carboxyheptadecanoylamino)butanoyl]amino]butanoyl]amino]-3-hydroxypropanoyl]amino]acetyl]amino]butanoyl]amino]-3-hydroxypropanoyl]amino]acetyl]-[Acb2,Leu10,Glu15,Lys17, Arg20,Glu21,Leu27,Lys28]-Glucagon amide] (I: H-H[Ac4c]QGTFTSDLSKYLESKRAREFVQWLLKT-NH2 / II: {C18 diacid-γGlu-γGlu}-SGESG; amide I:28-II:C; N-terminus assumed) |
| 2 | CC(C)C[C@H](NC(=O)[C@H](Cc1ccc(O)cc1)NC(=O)[C@H](CCCCN)NC(=O)[C@H](CO)NC(=O)[C@H](CC(C)C)NC(=O)[C@H](CC(=O)O)NC(=O)[C@H](CO)NC(=O)[C@@H](NC(=O)[C@H](Cc1ccccc1)NC(=O)[C@@H](NC(=O)CNC(=O)[C@H](Cc1c[nH]cn1)NC(=O)C(C)(C)NC(=O)[C@@H](N)Cc1c[nH]cn1)[C@@H](C)O)[C@@H](C)O)C(=O)N[C@@H](CCC(=O)O)C(=O)N[C@@H](CO)C(=O)N[C@@H](CCCNC(=N)N)C(=O)N[C@@H](CCCNC(=N)N)C(=O)N[C@@H](C)C(=O)N[C@@H](CCCNC(=N)N)C(=O)N[C@@H](CC(=O)O)C(=O)N[C@@H](Cc1ccccc1)C(=O)N[C@H](C(=O)N[C@@H](CCC(N)=O)C(=O)N[C@@H](Cc1c[nH]c2ccccc12)C(=O)N[C@@H](CC(C)C)C(=O)N[C@@H](CC(C)C)C(=O)N[C@@H](CCCCNC(=O)CNC(=O)[C@H](CO)NC(=O)[C@H](CCC(=O)O)NC(=O)CNC(=O)[C@H](CO)NC(=O)CC[C@H](NC(=O)CC[C@H](NC(=O)CCCCCCCCCCCCCCCCC(=O)O)C(=O)O)C(=O)O)C(=O)N[C@H](C(N)=O)[C@@H](C)O)C(C)C [Example 37, N^ε28-[2-[[(2S)-2-[[(2S)-4-carboxy-2-[[2-[[(2S)-2-[[(4S)-4-carboxy-4-[[(4S)-4-carboxy-4-(17-carboxyheptadecanoylamino)butanoyl]amino]butanoyl]amino]-3-hydroxypropanoyl]amino]acetyl]amino]butanoyl]amino]-3-hydroxypropanoyl]amino]acetyl]-[Aib2,His3,Leu10,Glu15, Arg20,Leu27,Lys28]-Glucagon amide] (I: H-H[Aib]HGTFTSDLSKYLESRRARDFVQWLLKT-NH2 / II: {C18 diacid-γGlu-γGlu}-SGESG; amide I:28-II:C; N-terminus assumed) |
